According to patent US20210402002A1, “CONJUGATE” (priority 2018, published 2021):

Columns and labels:
[1] = system: SKBR-3 cells; assay: ADCC assay (LDH cytotoxicity) with SKBR-3 cells pre-incubated with glycosylation inhibitors; assay type: cell-based
Protocol: (§1) SKBR-3 and SKOV-3 cells were cultured on 96-well plates in recommended conditions and incubated with or without glycosylation inhibitors or ADCs for four days as described above. […] After 3.5 h at +37° C., cytotoxicity was assessed with commercial lactate dehydrogenase assay kit (Cytotoxicity detection kit (LDH), Thermo Fischer Scientific) and the cytotoxicities were calculated as proportion of killed cells (%, average of three parallel wells).

[2] = system: SKOV-3 cells; assay: ADCC assay (LDH cytotoxicity) with SKOV-3 cells pre-incubated with glycosylation inhibitors; assay type: cell-based
Protocol: as §1

[3] = system: SKOV-3 ovarian carcinoma cells; assay: FACS staining of SKOV-3 cells with labeled lectins and Galectins after incubation with glycosylation inhibitors; assay type: cell-based; settings: compared to untreated cells; for Galectin ligand expression, LEA-FITC, Galectin-1 and Galectin-3 staining: 50 μM, 4 days; for cell surface sialylation, SNA-I-FITC lectin staining: 100 μM, 3 days
Protocol: SKOV-3 ovarian carcinoma cells (ATCC, Manassas, Va., USA) were cultured according to ATCC's instructions and incubated in the presence of either 50 μM 2-acetamido-2,4-dideoxy-4-fluoro-1,3,6-tri-O-acetyl-D-glucose for 4 days (β-4-F-GlcNAc; Sussex Research, Ottawa, Canada), 100 μM 5-acetamido-3,5-dideoxy-3-fluoro-2,4,7,8,9-penta-O-acetyl-D-erythro-L-manno-2-nonulosonic acid methyl ester (β-3-Fax-Neu5Ac; Tocris Bioscience, Abingdon, United Kingdom) for 3 days, or DMSO carrier control in parallel. After the incubation, cells were stained with fluorescein-labeled lectins SNA-I-FITC for α2,6-sialylation, LEA-FITC for poly-N-acetyllactos-amines (both from EY Labs, San Mateo, Calif., USA), Alexa Fluor 488-conjugated human recombinant Galectin-1, and Alexa Fluor 488-conjugated human recombinant Galectin-3 (both from Abcam, Cambridge, United Kingdom). Cells were washed and stored on ice in the dark until analysed by FACSAriaII flow cytometer.

[4] = system: HSC-2 cancer cells; assay: FACS staining of HSC-2 cells with lectins, Galectin-1 and Siglec-7 after incubation with glycosylation inhibitors; assay type: cell-based; settings: 2 days, compared to untreated cells; for Galectin-1 ligand glycosylation, lectin and Galectin-1 staining: 100 μM; for sialylation/Siglec-7 ligand glycosylation, SNA-I and Siglec-7 staining: 200 μM
Protocol: In another experiment, HSC-2 cancer cells were cultured for two days, after which glycosylation inhibitors were added to the cell culture medium: 200 μM β-3-Fax-Neu5Ac and 100 μM β-4-F-GlcNAc. The cells were then cultured for 2 days with inhibitors. In parallel, untreated cells were cultured in normal cell culture medium. For flow cytometry analysis cells were detached with trypsin, washed, and stained with FITC-conjugated lectins, AlexaFluor488-conjugated Galectin-1 and recombinant human Siglec-7 (R&D Systems) at +4° C. for 30-45 minutes (the Siglec-samples were further stained with AlexaFluor488-conjugated anti-human IgG antibody at +4° C. for 30-45 minutes). FACS was performed as above.

[5] = system: SKBR-3 cells; assay: N-glycan profiling by MALDI-TOF MS, high-mannose N-glycans (mannosidase I inhibition); assay type: cell-based; settings: 10 μM, four days, control cells 7.07
[6] = system: SKBR-3 cells
[7] = system: HER2; assay: Inhibition of HER2 glycoprotein N-glycosylation in SKBR-3 cells (SDS-PAGE, anti-HER2 immunoblot); assay type: cell-based, human
Source text: After six days' culture, the cells were lysed and samples from each treatment were subjected to SDS-PAGE and immunoblotting with anti-HER2 antibody (anti-human ErbB2/Her2 goat polyclonal antibody AF1129, R&D Systems) with standard procedures.

[8] = system: egg embryos; assay: Embryo toxicity in the CAM in vivo trial (% alive egg embryos); design: species or system chicken; settings: alive egg embryos at end of study; same dosing; PBS control 83
Protocol: (§2) The study was performed by Inovotion SAS (La Tronche, France) as follows: Fertilized chicken eggs were incubated at 37.5° C. with 50% relative humidity for 9 days (E9), when the chorioallantoic membrane (CAM) was dropped down by drilling a small hole through the eggshell into the air sac, and a 1 cm^2 window was cut in the eggshell above the CAM. The NCI-N87 cell line was cultivated in RPMI-1640 medium supplemented with 10% FBS and 1% penicillin/streptomycin. On day E9, cells were detached by trypsin, washed with complete medium and suspended in graft medium. An inoculum of 2 million cells was added onto the CAM of each egg. […] On day 18 (E18) the upper portion of the CAM was removed, washed in PBS and then directly transferred in PFA (fixation for 48 h). The tumors were then carefully cut away from normal CAM tissue and weighed. Eggs were checked at each treatment time, or at least every two days, for viability during the study. At the end of the study, the number of dead embryos was counted and combined with the observation of eventual visible macroscopic abnormalities (observation done during the sample collection) to evaluate the toxicity.

[9] = system: NCI-N87 cancer cell line tumors; assay: In vivo efficacy trial, tumors on chicken egg chorioallantoic membrane (CAM); settings: day E18, trastuzumab and tunicamycin-ADC single dose 2.5 mg/kg, pembrolizumab […] five doses, PBS control 32.2
Protocol: as §2

[10] = second assay, SKBR-3, 50 μM inhibitor and trastuzumab only, no effector cells
[11] = second assay, SKBR-3, 50 μM inhibitor, trastuzumab and effector cells applied
[12] = SKOV-3, 50 μM inhibitor and trastuzumab only, no effector cells
[13] = SKOV-3, 50 μM inhibitor, trastuzumab and effector cells applied

## CC(=O)N[C@H]1C(OC(C)=O)O[C@H](COC(C)=O)[C@@H](F)[C@@H]1OC(C)=O (stereo partly drawn) [P-4F-GlcNAc, 2-acetamido-2,4-dideoxy-4-fluoro-1,3,6-tri-O-acetyl-D-glucose]
[1]; [10]
  cytotoxicity (proportion of killed cells): 1-2%
[1]; [11]
  cytotoxicity (proportion of killed cells): about 16%
[2]; [12]
  cytotoxicity (proportion of killed cells): no cytotoxicity was observed
[2]; [13]
  cytotoxicity (proportion of killed cells): about 5%
[3]
  Galectin ligand expression, LEA-FITC, Galectin-1 and Galectin-3 staining: effective inhibition
[3]; listed as β-4-F-GlcNAc
  Galectin ligand expression, LEA-FITC, Galectin-1 and Galectin-3 staining: clearly decreased
[4]
  Galectin-1 ligand glycosylation, lectin and Galectin-1 staining: effective inhibition
[4]; listed as β-4-F-GlcNAc
  Galectin-1 ligand glycosylation, lectin and Galectin-1 staining: clearly decreased

## COC(=O)C1(OC(C)=O)O[C@@H]([C@H](OC(C)=O)[C@@H](COC(C)=O)OC(C)=O)[C@H](NC(C)=O)[C@@H](OC(C)=O)[C@H]1F (stereo partly drawn) [P-3Fax-Neu5Ac, 5-acetamido-3,5-dideoxy-3-fluoro-2,4,7,8,9-penta-O-acetyl-D-erythro-L-manno-2-nonulosonic acid methyl ester]
[1]; third assay, SKBR-3, 50 μM inhibitor, trastuzumab and effector cells applied
  absorbance reading in the cytotoxicity assay: about 0.7
[3]
  cell surface sialylation, SNA-I-FITC lectin staining: effective inhibition
[3]; listed as β-3-Fax-Neu5Ac
  cell surface sialylation, SNA-I-FITC lectin staining: clearly decreased
[4]
  sialylation/Siglec-7 ligand glycosylation, SNA-I and Siglec-7 staining: effective inhibition
[4]; listed as β-3-Fax-Neu5Ac
  sialylation/Siglec-7 ligand glycosylation, SNA-I and Siglec-7 staining: clearly decreased

## O=C1N[C@@H]2[C@@H](O)[C@@H](O)[C@H](O)[C@@H](CO)N2C1=O [kifunensine]
[1]; first assay, SKBR-3, 10 μM inhibitor and trastuzumab only, no effector cells
  cytotoxicity (proportion of killed cells): no cytotoxicity was detected
[1]; first assay, SKBR-3, 10 μM inhibitor, trastuzumab and effector cells applied
  cytotoxicity (proportion of killed cells): 18.5%
[1]; [10]
  cytotoxicity (proportion of killed cells): 2-3%
[1]; [11]
  cytotoxicity (proportion of killed cells): about 19%
[2]; [12]
  cytotoxicity (proportion of killed cells): no cytotoxicity was observed
[2]; [13]
  cytotoxicity (proportion of killed cells): about 2%
[5]
  average number of mannose residues (Man) in the Man5-9GlcNAc2 glycan signal series: 8.56

## tunicamycin
[1]; first assay, SKBR-3, 1 μM inhibitor and trastuzumab only, no effector cells
  cytotoxicity (proportion of killed cells): no cytotoxicity was detected
[1]; first assay, SKBR-3, 1 μM inhibitor, trastuzumab and effector cells applied
  cytotoxicity (proportion of killed cells): 40.4%
[1]; second assay, SKBR-3, 0.5 μM inhibitor and trastuzumab only, no effector cells
  cytotoxicity (proportion of killed cells): about 4%
[1]; second assay, SKBR-3, 0.5 μM inhibitor, trastuzumab and effector cells applied
  cytotoxicity (proportion of killed cells): about 46%
[2]; SKOV-3, 0.5 μM inhibitor and trastuzumab only, no effector cells
  cytotoxicity (proportion of killed cells): about 2%
[2]; SKOV-3, 0.5 μM inhibitor, trastuzumab and effector cells applied
  cytotoxicity (proportion of killed cells): about 5%
[6]; read-out: IC50 (cellular viability), six days
  IC50: 300 nM
[7]; six days' incubation, immunoblot, read-out: EC50 (concentration with 50% efficacy) of decrease of relative MW of HER2, defective N-glycosylation
  EC50: 70 nM
[7]; six days, SDS-PAGE
  decrease of relative MW of HER2 upon inhibition of N-glycosylation: about 15 kDa

## pembrolizumab: pembrolizumab (Keytruda, Merck)
[8]
  % alive: 58%
[9]
  Mean tumor size: 34.9 mg

## omalizumab-MC-VC-PAB-DMAE-tunicamycin DAR=8 ADC: DAR=8 conjugate of MC-VC-PAB-DMAE-tunicamycin V prepared from omalizumab (negative control antibody)
[6]; five or eight days, up to 1 μM
  cytotoxicity to the cells in the viability assay: no apparent toxicity
